Laboratory results from PubChem BioAssay (NCI).
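Following 48 hours of exposure in 96-well plates, responses at five concentrations were used to interpolate endpoints linearly. TGI: concentration producing complete growth inhibition.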

Experiments:
Experiment in all cases: inhibition of tumour cell growth, NCI panel, 48 h
SF-295 CNS = system: SF-295 CNS
SK-MEL-5 melanoma = system: SK-MEL-5 melanoma
MOLT-4 leukemia = system: MOLT-4 leukemia
HOP-92 NSCLC = system: HOP-92 NSCLC
NCI-H226 lung = system: NCI-H226 lung
TK-10 renal = system: TK-10 renal
RPMI-8226 leukemia = system: RPMI-8226 leukemia
HCT-116 colon = system: HCT-116 colon
SNB-19 CNS = system: SNB-19 CNS
MDA-MB-231 breast = system: MDA-MB-231 breast
T-47D breast = system: T-47D breast
OVCAR-8 ovarian = system: OVCAR-8 ovarian
SF-539 CNS = system: SF-539 CNS
EKVX NSCLC = system: EKVX NSCLC
HCC-2998 colon = system: HCC-2998 colon
NCI-H460 lung = system: NCI-H460 lung

Row | Compound | TGI (SF-295 CNS) [µM] | TGI (SK-MEL-5 melanoma) [µM] | TGI (MOLT-4 leukemia) [µM] | TGI (HOP-92 NSCLC) [µM] | TGI (NCI-H226 lung) [µM] | TGI (TK-10 renal) [µM] | TGI (RPMI-8226 leukemia) [µM] | TGI (HCT-116 colon) [µM] | TGI (SNB-19 CNS) [µM] | TGI (MDA-MB-231 breast) [µM] | TGI (T-47D breast) [µM] | TGI (OVCAR-8 ovarian) [µM] | TGI (SF-539 CNS) [µM] | TGI (EKVX NSCLC) [µM] | TGI (HCC-2998 colon) [µM] | TGI (NCI-H460 lung) [µM]
1 | CN1C(=O)C2(C)SC1(c1ccccc1)C1C(=O)N(c3ccccc3)C(=O)C12 (centres undefined) | > 100 | > 100 | > 100 | > 100 | > 100 | > 100 | > 100 | > 100 | > 100 | > 100 | > 100 | > 100 | > 100 | > 100 | – | –
2 | O=c1nc2n3c4c(cccc4nc-2c(=O)[nH]1)CCC3 | > 100 | > 100 | > 100 | – | > 100 | > 100 | > 100 | > 100 | > 100 | > 100 | > 100 | > 100 | > 100 | > 100 | > 100 | > 100
3 | O=c1ccc2ccc(OP(=O)(O)O)cc2o1 | > 100 | > 100 | > 100 | – | > 100 | > 100 | > 100 | > 100 | > 100 | > 100 | > 100 | > 100 | > 100 | > 100 | > 100 | > 100
4 | NC(=O)C1CCCN1C(=O)C(Cc1cnc[nH]1)NC(=O)C1CCCC1 (centres undefined) | > 100 | > 100 | > 100 | > 100 | > 100 | > 100 | > 100 | > 100 | > 100 | > 100 | > 100 | > 100 | – | > 100 | > 100 | > 100
5 | CC1=C(C(=O)OC2CC3CCC2(C)C3(C)C)C2Nc3ccccc3N(C)C2O1 (centres undefined) | 3.04 | 3.53 | 6.69 | 20.8 | 39.3 | 17.4 | 6.78 | 7.36 | 10.1 | 16.9 | 11.8 | 9.02 | – | 21.1 | 3.91 | 3.7
6 | COC(=O)CCC(=O)c1ccc2c(c1)CCC2 | > 100 | > 100 | > 100 | > 100 | – | > 100 | > 100 | > 100 | > 100 | > 100 | > 100 | > 100 | > 100 | > 100 | > 100 | > 100
7 | Cc1ccc(C)n1-c1ccccc1C1C=Cn2c(=O)nnc3c(OC(C)C)c(OC(C)C)c(O)c1c32 (centres undefined) | > 100 | > 100 | 56.5 | > 100 | 53.6 | > 100 | 42.4 | 70.1 | > 100 | > 100 | – | > 100 | > 100 | > 100 | > 100 | > 100
